From patent publication US10975056B2 (GlaxoSmithKline Intellectual Property Development Limited, priority 2016, dated 2021) come the findings set out here.

Each structure is given as a SMILES string. Read-outs that look alike come from different tables or passages of the source. Some results are limits rather than exact numbers.

Assay [1] has as its system erythroid progenitor cells (EPCs). The assay can be described thus: Fetal hemoglobin (HbF) ELISA in day 7 erythroid progenitor cells.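 Also: for fetal hemoglobin induction normalized to vehicle-treated cells.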 It is filed as cell-based, human. Particulars: Homo sapiens, Erythroid progenitor cell, HbF ELISA, day 7 EPCs, 5 days; read-out: EPC ELISA (pEC50 category) (converted). The essentials: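 Day 7 EPCs from human bone marrow CD34+ cells were plated at 1,000 cells/well in media with 3 U/mL rhEPO. They were exposed to a 22-point dilution ([…]) for 5 days at 37 °C. Lysate HbF was measured by sandwich ELISA (OD450) and normalized to DMSO control wells.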
For orientation: An ELISA detects its analyte on a solid surface through an enzyme-linked reagent.

Assay [2] deals with DNMT1 (Homo sapiens, UniProt P26358). Briefly: DNMT1 biochemical activity, breaklight assay and/or SPA assay.
Sequence of DNMT1 (P26358 whole entry, looked up): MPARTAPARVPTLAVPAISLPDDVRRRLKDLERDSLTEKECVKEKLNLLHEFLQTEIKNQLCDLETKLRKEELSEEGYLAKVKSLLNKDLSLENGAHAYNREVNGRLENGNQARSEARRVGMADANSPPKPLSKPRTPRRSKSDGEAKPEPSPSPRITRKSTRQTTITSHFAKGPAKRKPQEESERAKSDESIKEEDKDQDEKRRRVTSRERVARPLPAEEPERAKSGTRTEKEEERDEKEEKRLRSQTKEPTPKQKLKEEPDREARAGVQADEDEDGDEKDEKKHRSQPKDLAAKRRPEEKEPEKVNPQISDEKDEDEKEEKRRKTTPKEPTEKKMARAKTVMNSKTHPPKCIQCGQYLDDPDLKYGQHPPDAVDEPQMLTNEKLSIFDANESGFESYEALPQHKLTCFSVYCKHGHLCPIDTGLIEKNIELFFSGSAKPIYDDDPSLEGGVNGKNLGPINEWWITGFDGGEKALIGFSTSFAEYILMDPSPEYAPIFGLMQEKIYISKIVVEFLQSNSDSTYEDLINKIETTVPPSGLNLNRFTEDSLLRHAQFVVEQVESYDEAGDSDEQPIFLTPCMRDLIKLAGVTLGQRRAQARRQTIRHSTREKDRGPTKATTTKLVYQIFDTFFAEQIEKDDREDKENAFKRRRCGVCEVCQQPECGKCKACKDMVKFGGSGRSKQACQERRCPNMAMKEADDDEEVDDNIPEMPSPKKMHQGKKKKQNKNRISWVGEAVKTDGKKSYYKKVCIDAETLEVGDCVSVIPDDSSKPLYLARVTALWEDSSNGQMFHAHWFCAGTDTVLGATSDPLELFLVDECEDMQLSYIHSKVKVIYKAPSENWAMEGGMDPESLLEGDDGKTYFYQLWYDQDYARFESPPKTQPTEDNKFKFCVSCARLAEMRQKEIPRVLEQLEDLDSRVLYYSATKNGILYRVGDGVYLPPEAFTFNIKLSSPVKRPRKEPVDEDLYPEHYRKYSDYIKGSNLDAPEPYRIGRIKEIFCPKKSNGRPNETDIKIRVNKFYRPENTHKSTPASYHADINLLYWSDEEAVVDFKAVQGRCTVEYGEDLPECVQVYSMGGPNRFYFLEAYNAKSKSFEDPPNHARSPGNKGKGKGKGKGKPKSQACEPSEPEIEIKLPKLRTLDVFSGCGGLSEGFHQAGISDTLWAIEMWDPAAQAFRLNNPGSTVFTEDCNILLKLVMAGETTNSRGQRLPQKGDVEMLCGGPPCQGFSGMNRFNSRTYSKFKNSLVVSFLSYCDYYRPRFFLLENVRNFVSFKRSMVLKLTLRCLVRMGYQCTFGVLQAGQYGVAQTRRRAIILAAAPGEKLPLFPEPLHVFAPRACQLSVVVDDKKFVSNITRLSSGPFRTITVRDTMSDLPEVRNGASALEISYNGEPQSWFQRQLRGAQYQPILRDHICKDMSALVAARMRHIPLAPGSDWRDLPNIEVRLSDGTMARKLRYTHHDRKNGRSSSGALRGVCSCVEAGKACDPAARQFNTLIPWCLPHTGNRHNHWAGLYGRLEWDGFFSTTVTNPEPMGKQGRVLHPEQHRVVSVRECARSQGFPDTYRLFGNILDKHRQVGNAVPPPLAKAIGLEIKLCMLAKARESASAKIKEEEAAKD
[3] abbreviates: binned activity in either the breaklight or the SPA assay.
Where [4] appears, read: binned activity in either the breaklight or the SPA assay, read-out: DNMT1 BioChemical (pIC50 category) (converted).

Turning to `CCc1c(C#N)c(SC(C(N)=O)c2ccccc2)nc(N2CCC3(CCCNC3)CC2)c1C#N` (stereo not shown) [Example 116, 2-((3,5-Dicyano-4-ethyl-6-(2,9-diazaspiro[5.5]undecan-9-yl)pyridin-2-yl)thio)-2-phenylacetamide], in assay [1], the EC50 was under 316 nM. The “DNMT1 BioChemical (pIC50 category)” value in assay [2] (setting [3]) is on record as “D (Category D: ≥6.5)”.

As to `CCc1c(C#N)c(N[C@@H](C(N)=O)c2ccccc2)nc(N2CCCN(CC)CC2)c1C#N` [Example 162, (R)-2-((3,5-Dicyano-4-ethyl-6-(4-ethyl-1,4-diazepan-1-yl)pyridin-2-yl)amino)-2-phenylacetamide], the EC50 in assay [1] was 1000 to 31600 nM. Further, the IC50 in assay [2] (setting [4]) is 1000 to 31600 nM.

With `CCOc1c(C#N)c(SCc2ccc(CNC(C)=O)cc2)nc(N2CCCN(C)CC2)c1C#N` [Example 105, N-(4-(((3,5-Dicyano-4-ethoxy-6-(4-methyl-1,4-diazepan-1-yl)pyridin-2-yl)thio)methyl)benzyl)acetamide], the EC50 in assay [1] is 1000 to 31600 nM. Besides, in assay [2] (setting [3]), the “DNMT1 BioChemical (pIC50 category)” value was “D (Category D: ≥6.5)”.

Regarding `CCc1c(C#N)c(SC(C(N)=O)c2ccc(C(F)(F)F)cc2)nc(N2CCCN(C)CC2)c1C#N` (stereo not shown) [Example 233, 2-((3,5-dicyano-4-ethyl-6-(4-methyl-1,4-diazepan-1-yl)pyridin-2-yl)thio)-2-(4-(trifluoromethyl)phenyl)acetamide], the EC50 in assay [1] is under 316 nM. The IC50 in assay [2] (setting [4]) is 316 to 1000 nM.

For the compound `CCc1c(C#N)c(SC(C(N)=O)c2ccc(C(N)=O)cc2)nc(N(C)C)c1C#N` (stereo not shown) [Example 375, 4-(2-Amino-1-((3,5-dicyano-6-(dimethylamino)-4-ethylpyridin-2-yl)thio)-2-oxoethyl)benzamide], the EC50 in assay [1] was 1000 to 31600 nM. Moreover, the “DNMT1 BioChemical (pIC50 category)” value in assay [2] (setting [3]) is “D (Category D: ≥6.5)”.

As for `CCc1c(C#N)c(SC(C(N)=O)c2ccccc2)nc(N2CCC(N)(C(N)=O)CC2)c1C#N` (stereo not shown) [Example 251], the EC50 in assay [1] was 1000 to 31600 nM. In assay [2] (setting [4]), the IC50 is 1000 to 31600 nM.

Take `CCc1c(C#N)c(SC(C(N)=O)c2ccccc2)nc(N2CCC(N(C)C)CC2)c1C#N` (stereo not shown) [Example 548, 2-((3,5-dicyano-6-(4-(dimethylamino)piperidin-1-yl)-4-ethylpyridin-2-yl)thio)-2-phenylacetamide]: in assay [1], the EC50 is under 316 nM. The “DNMT1 BioChemical (pIC50 category)” value in assay [2] (setting [3]) was “D (Category D: ≥6.5)”.

As for `CCc1c(C#N)c(SCc2ccc(C(N)=O)cc2)nc(N2CCCN(C)CC2)c1C#N` [Example 70, 4-(((3,5-Dicyano-4-ethyl-6-(4-methyl-1,4-diazepan-1-yl)pyridin-2-yl)thio)methyl)benzamide], in assay [1], the EC50 is 316 to 1000 nM. Besides, the IC50 in assay [2] (setting [4]) was 316 to 1000 nM; in assay [2] (breaklight assay and/or SPA assay, repeated experimental runs, read-out: average pIC50 against DNMT1 (converted)), 316 to 1000 nM.

On to `CCc1c(C#N)c(SC(C(N)=O)c2ccccc2)nc(N2CCC(N3CC[C@H](F)C3)CC2)c1C#N` (stereo partly drawn) [Example 457, 2-((3,5-dicyano-4-ethyl-6-(4-((S)-3-fluoropyrrolidin-1-yl)piperidin-1-yl)pyridin-2-yl)thio)-2-phenylacetamide], for which the EC50 in assay [1] is under 316 nM. Further, the “DNMT1 BioChemical (pIC50 category)” value in assay [2] (setting [3]) was “D (Category D: ≥6.5)”.

Turning to `CCOc1c(C#N)c(SC(C)C(N)=O)nc(N2CCCN(CCO)CC2)c1C#N` (stereo not shown) [Example 212, 2-((3,5-Dicyano-4-ethoxy-6-(4-(2-hydroxyethyl)-1,4-diazepan-1-yl)pyridin-2-yl)thio)propanamide], in assay [1], the EC50 is 1000 to 31600 nM. Also, the IC50 in assay [2] (setting [4]) was 316 to 1000 nM.

As for `CCc1c(C#N)c(SC(C(N)=O)c2ccccc2)nc(N2CCC(NC3CCC3)CC2)c1C#N` (stereo not shown) [Example 448, 2-((3,5-dicyano-6-(4-(cyclobutylamino)piperidin-1-yl)-4-ethylpyridin-2-yl)thio)-2-phenylacetamide], the EC50 in assay [1] was under 316 nM. Moreover, the “DNMT1 BioChemical (pIC50 category)” value in assay [2] (setting [3]) is on record as “D (Category D: ≥6.5)”.

Consider `CCc1c(C#N)c(SCc2csc(NC(C)=O)n2)nc(N2CCCN(C)CC2)c1C#N` [Example 75, N-(4-(((3,5-Dicyano-4-ethyl-6-(4-methyl-1,4-diazepan-1-yl)pyridin-2-yl)thio)methyl)thiazol-2-yl)acetamide], for which the EC50 in assay [1] was over 31600 nM. Also, the IC50 in assay [2] (setting [4]) was 316 to 1000 nM.
